The record followed here is patent US10570168B2, “2′ and/or 5′ amino-acid ester phosphoramidate 3′-deoxy adenosine derivatives as anti- cancer compounds” (NuCana plc, priority 2014, dated 2020).

Assay type in all cases: cell-based
Experiment [1] relates to CCRF-CEM. The experiment in a line: CellTiterGlo viability assay, initial screening. The conditions noted are these: Homo sapiens, 72 h, read-out: IC50 (relative IC50). The method in brief: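 CTG viability readout after ~72 hr compound exposure. 9 pts, 3.16-fold serial dilution in DMSO, final down to 19.9 nM; DMSO 0.5% final; duplicates; standard CO2 culture.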
For experiment [2], the system named is HL-60. The experiment in a line: Solid tumour and haematological malignancy assay (CellTiterGlo). The conditions noted are these: Homo sapiens, HL-60, 72 h. The method in brief:
(§1)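 Cells were exposed to compound for 72 hr under standard growth conditions, in duplicate, with 0.5% final DMSO. Viability was then read by CellTiterGlo luminescence.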
(In general: Cellular ATP, detected with luciferase, serves as a proxy for viable cell number.)

Experiment [3] has as its system K562. Described as above. The conditions noted are these: Homo sapiens, K562, 72 h. The method in brief: as §1
In experiment [4] the test system is HT29. Described as above. As to conditions: Homo sapiens, HT-29, 72 h. The method in brief: as §1
Experiment [5] concerns MCF7. The description is as above. The conditions noted are these: Homo sapiens, MCF7, 72 h. The method in brief: as §1
In experiment [6] the test system is MiaPaCa-2. The experiment is described as above. The conditions noted are these: Homo sapiens, MIA PaCa-2, 72 h. The method, boiled down:
as §1

The subject of experiment [7] is KG-1. Described as above. As to conditions: Homo sapiens, KG-1, 72 h. The method, boiled down:
as §1

The test system of experiment [8] is RL (CRL-2261). Nature of the experiment: ATP (ViaLight plus) cytotoxicity assay. The procedure: Certain compounds of the invention were subjected to further studies to test the cytotoxic activity of certain compounds of the invention and also to measure their activity against 4 haematological cancer cell lines • TdT positive CEM (Human ALL) • TdT negative K562 (Human CML) • TdT negative H1-60 (Human ANLL) • RL (CRL-2261) non-HD lymphoma • The concentrations of the active metabolite dATP (Cordycepin triphosphate) in these cell lines was also measured. • The cytotoxic activity and the intracellular 3′-dATP concentrations were also studied in the presence of hENT1, Adenosine Kinase (AK) and Adenosine Deaminase pharmacological inhibitors in CEM and RL cancer cell lines. Said inhibitors that mimic known cancer resistance mechanisms. Methods Cell Culture
HL-60 (ATCC® CCL-240™), K562 (ATCC® CCL-243™), CCRF-CEM (ATCC® CRM-CCL-119™) and RL (ATCC® CRL-2261™) leukaemia cell lines, obtained from the American Type Culture Collection (ATCC), Middlesex. HL-60 and K562 cell lines are deoxynucleotidyl transferase-negative (TdT-ve), whereas CCRF-CEM cell line is TdT+ve.
HL-60, K562, CCRF-CEM and RL cell lines were cultured in RPMI-1640 medium (Sigma Aldrich, UK), which were supplemented with 10% Fetal Bovine Serum (FBS) (PAA Laboratories), 1% amphotericin B (5.5 ml) and 1% penicillin/streptomycin (5.5 ml) (PAA Laboratories) and grown in flasks at 37° C. incubator with 5% CO2.
The amount of ATP was used as a measurement of cell number and cell viability. ATP ViaLight™ plus assay kit (Lonza, USA: Product No. LT07-121) to detect ATP in cells treated in luminescence compatible 96 well plates (initial concentration of cells was 1×10^4 cells/well) with cordycepin and ProTides at concentrations of: 0, 0.1, 0.5, 1, 5 and 10 μM, followed by incubation for 72 hours at 37° C. incubator with 5% CO2. For inhibitor studies, 10 μM of NBTI or 1 μM EHNA or A-134974 was added and left for 5 minutes before adding the drugs (see section 5 for inhibitor details).
After incubation, 50 μl of cell lysis reagent was added to the 96 well plates to release the intracellular ATP, followed by 100 μl of ATP monitoring reagent (AMR). The luminescent values of each well were determined using FLUOstar OPTIMA microplate reader (BMG Labtech) which convert ATP into light by using luciferase enzyme. Therefore, the amount of luminescence produced was directly proportional to the amount of ATP.
Cell lines were treated in the same way as described above but before treatment with drugs, a number of inhibitors were added: • 1) Nitrobenzylthioinosine (NBTI) (Sigma-Aldrich, St. Louis, Mo., product # N2255) blocks nucleoside transporters • 2) EHNA hydrochloride (Sigma-Aldrich, St. Louis, Mo., product # E114) blocks adenosine deaminase • 3) Adenosine kinase inhibitor A-134974 dihydrochloride hydrate (Sigma-Aldrich, St. Louis, Mo., product # A2846): blocks adenosine kinase
The dose-response curves of cytotoxicity of the drugs was determined using non-linear regression analysis of percentage cell viability versus concentration and EC50 values were obtained. The intracellular assay was conducted in five replicates for each condition. Intracellular assay was determined using paired t test (two-tailed) analysis of 3′ATP/ATP concentration and p-values were obtained. For all the analysis, Prism Software program (GraphPad Software) was used and Microsoft Powerpoint® 2013 was used to plot the results.

pIC50: −log10 of the molar value.

Consider `C[C@H](NP(=O)(OC[C@@H]1CC(O)[C@H](n2cnc3c(N)ncnc32)O1)Oc1ccccc1)C(=O)OCc1ccccc1` (stereo partly drawn) [Compound A, 3′-deoxyadenosine-5′-O-[phenyl(benzyloxy-L-alaninyl)] phosphate], for which the pIC50 (commonly −log10 of the IC50, conventionally taken in molar units) in experiment [1] is 5.30 to 7.00; in experiment [2] (read-out: IC50 (absolute IC50)), 4.82 to 5.30; in experiment [3] (read-out: IC50 (absolute IC50)), 5.30 to 7.00; in experiment [4] (read-out: IC50 (absolute IC50)), 4.82 to 5.30; in experiment [5] (read-out: IC50 (absolute IC50)) it was 5.30 to 7.00; in experiment [6] (read-out: IC50 (absolute IC50)), 4.82 to 5.30. Further, the pIC50 was 4.00 to 4.82 in experiment [7] (read-out: IC50 (absolute IC50)); 5.68 in experiment [8] (72 h, CRL (RL, CRL-2261)); 5.44 in experiment [8] (CRL, Control (no inhibitor)); 4.99 in experiment [8] (CRL, with AK (adenosine kinase inhibitor A-134974, 1 μM)); 5.54 in experiment [8] (CRL, with EHNA 1 μM (adenosine deaminase blocker)); 5.59 in experiment [8] (CRL, with NBTI 10 μM (nucleoside transporter blocker)). Moreover, the Emax in experiment [2] (read-out: MI %) worked out at 99%; in experiment [3] (read-out: MI %), 96%; in experiment [4] (read-out: MI %), 93%; in experiment [5] (read-out: MI %), 99%; in experiment [6] (read-out: MI %), 96%; in experiment [7] (read-out: MI %) it was 100%. The “(FD) fold difference compared to Cordycepin = Cordycepin IC50/ProTide IC50” value in experiment [8] (CRL (RL, CRL-2261)) was “(12)”. Moreover, the “(FD) fold difference compared to control” value in experiment [8] (CRL, IC50 with AK inhibitor) is “(3)”; in experiment [8] (CRL, IC50 with EHNA), “(1)”; in experiment [8] (CRL, IC50 with NBTI), “(1)”.
